This is an account of results in patent publication US10214495B2, “Anti-malarial agents” (MMV MEDICINES FOR MALARIA VENTURE, priority 2015, dated 2019).

Converted amounts (≈) assume the structure as drawn. Where two headings read alike, the source gives them in different places.

In data set [1] the test system is P. falciparum NF54. Nature of the data set: In vitro P. falciparum growth inhibition, sensitive NF54 strain. It counts as cell-based. The following applies: Plasmodium falciparum, read-out: P. fal. NF54 IC50. How it is done: (§1) The ability of aminopyrazine derivatives according to the invention to kill P. falciparum parasites and/or to inhibit its proliferation is assayed through their ability to inhibit Plasmodium falciparum growth. Compounds were screened against multidrug resistant (K1) and sensitive (NF54) strains of P. falciparum in vitro as described by Vennerstrom et al. 2004, Nature, 430, 900-904.

In data set [2] the test system is P. falciparum K1. Briefly: In vitro P. falciparum growth inhibition, multidrug resistant K1 strain. It counts as cell-based. Conditions: Plasmodium falciparum, read-out: P. fal K1 IC50. How it is done:
as §1

Data set [3] has as its target hPI4KB (Homo sapiens, UniProt Q9UBF8). Briefly: PI4KB lipid kinase ADP-Glo assay. It counts as biochemical. The following applies: ATP 10 μM, PI substrate 50 μM. How it is done: The compounds of the invention were tested on their ability to inhibit the human PI4K kinase. The non-radiometric ADP-Glo™ Assay (Promega, Madison, Wis., USA) was used for measuring the activity of the PI4KB lipid kinase. All kinase assays were performed in 96-well half-area microtiter plates from Greiner Bio-One (Frickenhausen, Germany) in a 25 μl reaction volume. The reaction cocktail was pipetted in 3 steps in the following order:
10 μl of ATP solution (in assay buffer, see below)
5 μl of test sample in 10% DMSO
10 μl of enzyme/substrate mixture
PI4KB assay contained 50 mM HEPES-NaOH, pH 7.5, 1 mM EGTA, 100 mM NaCl, 0.03% CHAPS, 2 mM DTT, ATP, 10 μM, PI4KB kinase, 20 ng/25 μL, PI substrate 50 μM. and3 mM MnCl2.
The reaction cocktails were incubated at 30° C. for 40 minutes. The reaction was stopped with 25 μl ADP-Glo reagent per well. Plates were incubated for 40 minutes at room temperature, followed by addition of 50 μl kinase detection reagent per well and incubation for further 60 minutes at room temperature. Signal was measured with a microplate multilable reader (Victor2, Perkin Elmer, Boston, Mass., USA), in luminescence mode.
All assays were performed with a BeckmanCoulter Biomek 2000/SL robotic system. The median value of the counts (n=8) of each assay plate was defined as “low control”. This value reflects unspecific binding of radioactivity to the plate in the absence of a protein kinase but in the presence of the substrate. […]
As part of the data evaluation the low control value from a particular plate was subtracted from the high control value as well as from all 80 “compound values” of the corresponding plate. The residual activity (in %) for each well of a particular plate was calculated by using the following formula (i): Res. Activity (%)=100×[(cpm of compound−low control)/(high control−low control)] […]
The residual activities for each concentration and the compound IC50 values were calculated using Quattro Workflow V3.1.0 (Quattro Research GmbH, Munich, Germany; www.quattro-research.com). […]

Data set [4] is described as follows: Kinetic solubility by HPLC. Type of data set: physicochemical. Conditions: kinetic from dmso stock, room temperature. Here is the method: Dilutions were prepared to a theoretical concentration of 200 μM (n=2) in phosphate buffered saline (PBS) pH 6.5 (in 2% DMSO), in 0.01 M HCl pH 2 (in 2% DMSO) and in biologically relevant gastrointestinal media, fasted state simulated intestinal fluid, FaSSIF (in 2% DMSO). Calibration curves (11-220 μM) were prepared in DMSO. All dilutions were equilibrated at room temperature and mixed for 2 hours on an orbital shaker. The concentration of the test compounds was determined by HPLC using a Kinetex C18 column (2.1 mm×50 mm, 2.6 μm) at a column temperature of 35° C. An injection volume of 5 μL was used with a mobile phase flow rate of 0.6 mL/min. The mobile phase gradient method was as follows in Table 1: […]
Mobile phase A: 0.1% formic acid in 5% acetonitrile/water (v/v) (pH 3.1)
Mobile phase B: 0.1% formic acid in acetonitrile (pH 3.1)
Compound concentration (x) in the PBS/FASSIF/HC1 samples was calculated from the peak area (y) in the UV chromatogram by extrapolation from a three point calibration curve using the relationship: y=ax+b, where a is the slope and b is the intercept. Solubility was reported in the range <5-220 μM.

Data set [5] can be described thus: Pharmacokinetics in rats (iv and oral). Type of data set: in vivo. The following applies: rat; for Apparent T1/2 / Plasma Cl / Vd: 5.0 mg/kg iv. Here is the method:
Compounds of the invention were tested for their pharmacokinetics in rats according to the protocol below. Two different formulations were used to dose the compound of the invention as described in Table 3 below
Compound (1) was prepared for administration immediately prior to the experiment. The dose was prepared according to the average weight of the animals and an assumed volume of 350 μL of vehicle (IV) or 1000 μL of vehicle (oral). Volumes were adjusted io for each animal's individual weight to dose the compound at 5 mg/kg for the IV group (n=3 rats) and 20 mg/kg to the oral group (n=3). Water was supplied ad libitum, but animals were starved for 12 hours prior to dosing. Food was reinstated 5 hours post-dose.
The orally-treated animals were dosed by gavage with the drug introduced as a bolus. The IV-treated animals were anaesthetized and the drug was administered by infusion over a period of 2 minutes. Doses were staggered to allow for accurately timed sampling. Blood was collected at predetermined time-points to evaluate the kinetic profile over 24-48 hours. Blood sampling schedule, measured in hours post-dose, for the two groups of rats after the administration of Compound (1) are presented in Table 4 below:
Whole blood was collected via the tail vein into heparinised microcentrifugation tubes and stored on ice. Within 60 minutes of collection, samples were transferred to a freezer and stored at −80 ° C. until analysis was carried out via LC/MS/MS.
The extraction process was carried out on ice. To extract the drug for analysis, 30 μL of whole blood from each sample as well as from a series of standards and quality controls was transferred to a 96-well plate. A volume of 90 μL of cold methanol containing a suitable internal standard (approx. 60 ng/mL was added to each well and the plate was sealed and vortexed vigorously for 60 seconds to precipitate the proteins and release the compounds into the solvent). These were then centrifuged at 10000 G for 10 minutes to pellet the proteins and cellular debris, and the supernatant was transferred to a duplicate 96-well plate. The plate was transferred to the LC/MS/MS and held at 4° C. until all samples were injected onto the column.
LC/MS/MS analysis was carried out with 5 μL of each sample, using a method which was developed for simultaneous detection of compound (1) and the internal standard using a Phenomenex Hydro-RP column at 20° C. The mobile phase utilized acetonitrile containing 0.1% formic acid (v/v) as the organic component, and 0.1% (v/v) formic acid in water as the aqueous component. The mobile phase ran as a gradient at 400 μL/min, with the organic component increasing from 5% to 95% over 4 minutes before re-equilibration. The assay was calibrated over the range 2-6250 ng/mL (0.0056 μM-17.44 μM).

[6] abbreviates: FaSSIF pH 6.5, 2% DMSO, read-out: Kinetic Solubility Fassif pH6.5.
Where [7] appears, read: phosphate buffered saline, aqueous buffer, PBS pH 6.5, 2% DMSO, read-out: Kinetic Solubility pH 6.5.
Setting [8] is: 20.0 mg/kg po vs 5.0 mg/kg iv (Reference 1 column prints iv).

Chain of hPI4KB (Q9UBF8 whole entry): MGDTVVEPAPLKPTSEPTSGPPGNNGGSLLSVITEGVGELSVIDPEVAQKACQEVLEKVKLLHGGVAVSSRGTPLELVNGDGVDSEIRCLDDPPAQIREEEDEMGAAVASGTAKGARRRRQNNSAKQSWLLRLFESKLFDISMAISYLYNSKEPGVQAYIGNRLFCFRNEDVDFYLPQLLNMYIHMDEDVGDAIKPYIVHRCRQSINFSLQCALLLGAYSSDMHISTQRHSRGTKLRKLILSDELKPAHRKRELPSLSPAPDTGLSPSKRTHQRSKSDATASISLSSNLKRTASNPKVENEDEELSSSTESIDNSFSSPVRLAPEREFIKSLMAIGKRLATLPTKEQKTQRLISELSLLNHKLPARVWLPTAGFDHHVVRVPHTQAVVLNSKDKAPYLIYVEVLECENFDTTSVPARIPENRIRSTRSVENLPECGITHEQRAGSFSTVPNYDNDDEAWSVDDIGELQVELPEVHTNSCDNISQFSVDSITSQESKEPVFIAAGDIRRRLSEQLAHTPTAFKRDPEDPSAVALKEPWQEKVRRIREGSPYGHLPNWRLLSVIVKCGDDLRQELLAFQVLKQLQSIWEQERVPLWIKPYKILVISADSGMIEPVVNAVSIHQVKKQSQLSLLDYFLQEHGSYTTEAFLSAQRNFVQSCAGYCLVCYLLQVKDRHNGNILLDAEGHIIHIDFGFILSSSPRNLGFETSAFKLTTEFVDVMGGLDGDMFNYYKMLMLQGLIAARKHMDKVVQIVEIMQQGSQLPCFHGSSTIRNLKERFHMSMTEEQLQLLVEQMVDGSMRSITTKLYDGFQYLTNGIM

Turning to `NC(=O)c1ccc(-c2cnc(N)c(-c3ccc(C(F)(F)F)cc3)n2)cc1` [Reference 1, reference compound], the IC50 in data set [1] was 0.013 µM; in data set [2], 0.014 µM; in data set [3], 5 µM. Also, the solubility (kinetic) at 2 h in data set [4] (setting [6]) was 115 µM (≈ 41.2 µg/mL); in data set [4] (setting [7]), below 5 µM. Moreover, the “Apparent T1/2” value in data set [5] is 1.0 h. The “Plasma Cl” value in data set [5] turned out to be 39 mL/min/kg. The Vd in data set [5] was determined as 3.5 L/kg. Besides, the “Oral Bioavailability” value in data set [5] (setting [8]) was determined as 25%.
As for `Nc1ncc(-c2ccc(C(=O)O)cc2)nc1-c1ccc(C(F)(F)F)cc1` [Compound (1), 4-(5-amino-6-(4-(trifluoromethyl)phenyl)pyrazin-2-yl)benzoic acid], the values for the IC50 in data set [1], in data set [2] and in data set [3] were 0.033 µM, 0.032 µM and 7.7 µM, respectively. For the same compound, the solubility (kinetic) at 2 h in data set [4] (setting [6]) is 178 µM (≈ 64 µg/mL); in data set [4] (setting [7]), 180 µM (≈ 64.7 µg/mL). The “Apparent T1/2” value in data set [5] is on record as 4.9 h. In data set [5], the “Plasma Cl” value turned out to be 10.1 mL/min/kg. In data set [5], this compound returned a Vd of 4.3 L/kg. Also, the “Oral Bioavailability” value in data set [5] ([…] po vs 5.0 mg/kg iv) came out at 94%.
Consider `Nc1ncc(-c2ccc(C(=O)O)cc2)nc1-c1ccc(C(F)(F)F)nc1` [Compound (2), 4-(5-amino-6-(6-(trifluoromethyl)pyridin-3-yl)pyrazin-2-yl)benzoic acid], for which the values for the IC50 in data set [1], in data set [2] and in data set [3] were 0.026 µM, 0.024 µM and 23 µM, respectively. Moreover, the figures for the kinetic solubility at 2 h in data set [4] (setting [6]) and in data set [4] (setting [7]) were 199 µM (≈ 71.7 µg/mL) and 187 µM (≈ 67.4 µg/mL), respectively. In addition, the “Apparent T1/2” value in data set [5] was determined as 4.4 h. Further, in data set [5], the “Plasma Cl” value was 16.7 mL/min/kg. The compound also came in with a Vd in data set [5] of 6.4 L/kg. In addition, the “Oral Bioavailability” value in data set [5] (setting [8]) turned out to be 38%.
